According to article PMC10564737, “Structure-based design of a phosphotyrosine-masked covalent ligand targeting the E3 ligase SOCS2” (Nature Communications, 2023):
Several values for one entry are separate records, joined by “and”; a condition that tells them apart may be missing. Equal entries are not always repeated. Where two headings read alike, the source gives them in different places.

How the values were obtained:
[1] = molecular target: T1, HiBiT-SOCS2 fusion in HeLa cells (Homo sapiens, UniProt O14508); experiment: Split-NanoLuc CETSA, permeabilised cell format; type: cell-based
T1 construct: encoding SOCS2 (32–198) in pBiT3.1-N expression vector; expressed in transfected cells; host or cells: HeLa
T1 sequence (O14508 32-198): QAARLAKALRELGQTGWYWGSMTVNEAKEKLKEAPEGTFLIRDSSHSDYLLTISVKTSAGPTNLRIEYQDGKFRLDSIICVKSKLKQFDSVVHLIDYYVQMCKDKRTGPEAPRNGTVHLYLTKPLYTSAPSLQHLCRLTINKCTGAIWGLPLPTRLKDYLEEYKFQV
T1 sequence (Q15370 whole entry, further chain, the tested form may be a part): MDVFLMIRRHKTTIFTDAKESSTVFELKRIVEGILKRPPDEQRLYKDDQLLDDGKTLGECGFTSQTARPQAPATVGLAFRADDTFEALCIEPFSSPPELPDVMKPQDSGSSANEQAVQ
T1 sequence (Q15369 whole entry, further chain, the tested form may be a part): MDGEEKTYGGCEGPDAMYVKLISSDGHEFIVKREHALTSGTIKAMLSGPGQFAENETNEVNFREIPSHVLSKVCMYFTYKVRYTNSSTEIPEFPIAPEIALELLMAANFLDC
Method: One of the challenges with small-molecule binders displaying on-target activity with recombinant proteins, is to translate their utility to a cellular context. […] One of the advantages of CETSA is that target engagement can be monitored without the need for the development of a cell-permeable tracer molecule.
To test the cellular activity of MN551, we treated HeLa cells with 50 μM MN551 for 20 h and performed CETSA in a live-cell mode. We observed a small Tagg shift of 2 °C in live mode, which increased to 3–4 °C Tagg shift in the permeabilised format (Fig. 4d). We postulate that this observation could likely be a result of the low cellular permeability of MN551 owing to its negatively charged phosphate group.
N-terminal HiBiT-SOCS2 fusion was generated by encoding SOCS2 (32–198) in pBiT3.1-N expression vector (Promega). The transfection and target engagement assay were performed by modifying a NanoLuc target engagement protocol (Promega) with some small modifications. Briefly, HiBiT-SOCS2 fusion construct was transfected into HeLa cells using FuGENE HD (Promega) according to the manufacturer’s protocol. HiBiT-SOCS2 fusion construct was diluted into Transfection Carrier DNA (Promega) at a mass ratio of 1:100 or 1:10 for permeabilised and live-cell CETSA respectively. FuGENE HD was added at a ratio of 1:3 (μg DNA: μL FuGENE HD). 1 part (vol) of FuGENE HD complexes thus formed were combined with 20 parts (vol) of HeLa cells suspended at a density of 2 × 10^5 cells/mL, followed by incubation in a humidified, 37 °C + 5% CO2 incubator. After 20 h of incubation HeLa cells were detached and resuspended at a density of 2.5 × 10^5 cells/mL in Opti-MEM media without serum or phenol red but supplemented with protease inhibitor cocktail (Roche). […] Luminescence was recorded with GloMax Discover Microplate Reader (Promega). To generate apparent Tagg curves, the data is first converted to percent stabilized by relating the observed luminescence to the luminescence of the lowest temperature (40 °C) for that given sample. […]

K562 cells = experiment: cells; type: cell-based
Method: Supplementary Figure 10: GSH kinetic study of compound MN551 in GSH stability assay. A and B.
A plot of unmodified MN551 v/s time. The starting concentrations of MN551 were 1 and 10 µM in A and B respectively. C. Reactivity of MN551 measured against Afatinib and Ibrutinib
Supplementary Figure 11: Cell viability assay to assess cytotoxicity of MN714. (EC50 reported as mean±SEM, technical replicates=3).
(1 picture or pasted object on this page, not shown here)

SMILES	EC50 ([1]; MN551 CETSA dose response, Mean, read-out: EC50)	EC50 ([1]; MN551 CETSA dose response, single replicates, read-out: EC50, individual replicates n1-n2)	EC50 ([1]; permeabilised CETSA, 1 hr, mean ± SEM, n = 2, read-out: EC50 of Tagg shift)	EC50 (K562 cells; Homo sapiens, K562 24hrs, read-out: cell viability EC50)	concentration up to which no significant cytotoxicity was observed (K562 cells; K562 cells)
O=C(CCl)Nc1cccc(CNC(=O)[C@H](Cc2ccc(OP(=O)(O)O)cc2)NC(=O)Cc2ccc(F)cc2)c1 [MN551]	1010 nM	755 nM and 1260 nM	1000 ± 250 nM	–	–
CC(C)(C)C(=O)OCOP(=O)(OCOC(=O)C(C)(C)C)Oc1ccc(C[C@H](NC(=O)Cc2ccc(F)cc2)C(=O)NCc2cccc(NC(=O)CCl)c2)cc1 [MN714]	–	–	–	11.8 µM	3 to 10 µM
